Here are results for 17 molecules from US8669361B2, “Pyrazol-4-yl-heterocyclyl-carboxamide compounds and methods of use” (Genentech, Inc., priority 2010, dated 2014).

A word on the Ki: it is the dissociation constant of the complex between target and ligand, obtained from inhibition or displacement.

What all share (assay): Pim kinase binding activity, Caliper LC3000 microfluidic peptide phosphorylation assay (Example 901)
Common to all, as to format: biochemical

One experiment addresses PIM1 (Homo sapiens (Human), UniProt P11309). The conditions noted are these: 20 pM PIM1, 1 μM FAM-peptide, 10 μM ATP, 90 minutes at room temperature; read-out: PIM1 LC3K (KI). The procedure: (§1) PIM-1, -2, and -3 enzymes were generated as fusion proteins expressed in bacteria and purified by IMAC column chromatography (Sun, X., Chiu, J. F., and He, Q. Y. (2005) Expert Rev. Proteomics, 2:649-657). A fluorescent-labeled Pim-specific peptide substrate, was custom synthesized by American Peptide Company (Sunnyvale, Calif.). Reaction Buffer contained 10 mM HEPES, pH 7.2, 10 mM MgCl2, 0.01% Tween 20, 2 mM DTT. Termination Buffer contained 190 mM HEPES, pH 7.2, 0.015% Brij-35, 0.2% Coating Reagent 3 (Caliper Life Sciences, Hopkinton, Mass.), 20 mM EDTA. Separation Buffer contained 100 mM HEPES, pH 7.2, 0.015% Brij-35, 0.1% Coating Reagent 3, 1:200 Coating Reagent 8 (Caliper Life Sciences, Hopkinton, Mass.), 10 mM EDTA and 5% DMSO.
(§2) PIM reactions were carried out in a final volume of 10 μL per well in a 384-well plate. A standard enzymatic reaction, initiated by the addition of 5 μL 2×ATP and test compound to 5 μL of 2× enzyme and FAM-peptide, contained 20 pM PIM1, 50 pM PIM2, or 55 pM PIM3, 1 μM FAM-peptide, and 10 μM ATP, in Reaction Buffer. After 90 minutes of incubation at room temperature, the phosphorylation reaction was stopped by the addition of 10 μL Termination Buffer. The product and substrate in each independent reaction were separated on a 12-sipper microfluidic chip (Caliper Life Sciences, Hopkinton, Mass.) run on a Caliper LC3000® (Caliper Life Sciences, Hopkinton, Mass.). The separation of product and substrate was optimized by choosing voltages and pressure using Caliper's Optimizer software (Hopkinton, Mass.). The separation conditions used a downstream voltage of −500V, an upstream voltage of −2150V, and a screening pressure of −1.2 psi. The product and substrate fluorophore were excited at 488 nm and detected at 530 nm. Substrate conversion was calculated from the electropherogram using HTS Well Analyzer software (Caliper Life Sciences, Hopkinton, Mass.). Ki values for the test compound were calculated.

A further experiment addresses PIM3 (Homo sapiens (Human), UniProt Q86V86). The conditions noted are these: 55 pM PIM3, 1 μM FAM-peptide, 10 μM ATP, 90 minutes at room temperature; read-out: PIM3 LC3K (KI). As to the method: as §1, §2
In the next experiment the target is PIM2 (Homo sapiens (Human), UniProt Q9P1W9). The conditions noted are these: 50 pM PIM2, 1 μM FAM-peptide, 10 μM ATP, 90 minutes at room temperature; read-out: PIM2 LC3K (KI). As to the method:
A fluorescent-labeled Pim-specific peptide substrate, was custom synthesized by American Peptide Company (Sunnyvale, Calif.). Reaction Buffer contained 10 mM HEPES, pH 7.2, 10 mM MgCl2, 0.01% Tween 20, 2 mM DTT. Termination Buffer contained 190 mM HEPES, pH 7.2, 0.015% Brij-35, 0.2% Coating Reagent 3 (Caliper Life Sciences, Hopkinton, Mass.), 20 mM EDTA. Separation Buffer contained 100 mM HEPES, pH 7.2, 0.015% Brij-35, 0.1% Coating Reagent 3, 1:200 Coating Reagent 8 (Caliper Life Sciences, Hopkinton, Mass.), 10 mM EDTA and 5% DMSO.
as §2, with “A standard enzymatic reaction, initiated by the addition of 5 μL 2×ATP and test compound to 5 μL of 2× enzyme and FAM-peptide, contained 20 pM PIM1, 50 pM PIM2, or 55 pM PIM3, 1 μM FAM-peptide, and 10 μM ATP, in Reaction Buffer.” left out, “The product and substrate fluorophore were excited at 488 nm and detected at 530 nm.” left out

Sequence of PIM1 (P11309 whole entry, the tested form may be a part): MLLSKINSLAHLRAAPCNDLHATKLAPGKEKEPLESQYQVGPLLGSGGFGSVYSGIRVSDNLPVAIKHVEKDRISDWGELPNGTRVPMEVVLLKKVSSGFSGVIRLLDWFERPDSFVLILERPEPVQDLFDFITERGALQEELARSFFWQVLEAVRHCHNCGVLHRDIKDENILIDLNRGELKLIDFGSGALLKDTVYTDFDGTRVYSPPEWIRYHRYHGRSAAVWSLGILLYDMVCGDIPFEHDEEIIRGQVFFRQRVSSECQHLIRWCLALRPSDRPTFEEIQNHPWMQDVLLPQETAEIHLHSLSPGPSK
Sequence of PIM2 (Q9P1W9 whole entry): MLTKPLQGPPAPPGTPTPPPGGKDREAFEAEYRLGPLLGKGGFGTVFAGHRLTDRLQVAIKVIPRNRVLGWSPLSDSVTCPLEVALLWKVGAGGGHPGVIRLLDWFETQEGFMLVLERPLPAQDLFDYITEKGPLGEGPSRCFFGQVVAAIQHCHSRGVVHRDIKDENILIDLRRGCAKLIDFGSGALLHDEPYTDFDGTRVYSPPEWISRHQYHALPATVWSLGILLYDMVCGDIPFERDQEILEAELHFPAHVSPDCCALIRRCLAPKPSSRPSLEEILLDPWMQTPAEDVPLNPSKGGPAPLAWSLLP

For `Cn1cc(NC(=O)c2nc(-c3c(F)cccc3F)sc2N)cn1` [Example 102, 5-amino-2-(2,6-difluorophenyl)-N-(1-methyl-1H-pyrazol-4-yl)thiazole-4-carboxamide], the inhibition constant Ki stood at 16 nM on PIM1, 8.8 nM on PIM3 and 110 nM at PIM2.
For the molecule `Cn1ncc(NC(=O)c2nc(-c3c(F)cccc3F)sc2N)c1NCC1CCNCC1` [Example 105, 5-amino-2-(2,6-difluorophenyl)-N-(1-methyl-5-(piperidin-4-ylmethylamino)-1H-pyrazol-4-yl)thiazole-4-carboxamide], the results for the Ki on PIM1, on PIM3 and on PIM2 were 4.54 nM, 5.77 nM and 148 nM, respectively.
The like results for `Cn1ncc(NC(=O)c2nc(-c3ccccc3F)sc2N)c1N1CCC[C@H](N)C1` [Example 107, (S)-5-amino-N-(5-(3-aminopiperidin-1-yl)-1-methyl-1H-pyrazol-4-yl)-2-(2-fluorophenyl)thiazole-4-carboxamide] were, in that order, 1.22 nM, 0.575 nM and 20.1 nM.
For `Cn1ncc(NC(=O)c2nc(-c3ccccc3)ccc2N)c1N1CCC(N)CC1` [Example 109, 3-amino-N-(5-(4-aminopiperidin-1-yl)-1-methyl-1H-pyrazol-4-yl)-6-phenylpicolinamide], in that order: 0.762 nM, 2.63 nM and 41.1 nM.
For `Cn1ncc(NC(=O)c2nc(-c3ccccc3F)ccc2N)c1N1CCC[C@@H](N)C1` [Example 112, (R)-3-amino-N-(5-(3-aminopiperidin-1-yl)-1-methyl-1H-pyrazol-4-yl)-6-(2-fluorophenyl)picolinamide], in that order: 0.246 nM, 0.34 nM and 2.49 nM.
For the molecule `Cn1ncc(NC(=O)c2nc(-c3ccccc3F)ccc2N)c1OC1CCNCC1` [Example 116, 3-amino-6-(2-fluorophenyl)-N-(1-methyl-5-(piperidin-4-yloxy)-1H-pyrazol-4-yl)picolinamide], the results for the Ki at PIM1, on PIM3 and at PIM2 were 4.36 nM, 4.97 nM and 26.2 nM, respectively.
The like results for `Cn1ncc(NC(=O)c2nc(Cl)cnc2N)c1N1CCC[C@H](N)C1` [Example 123, (S)-3-amino-N-(5-(3-aminopiperidin-1-yl)-1-methyl-1H-pyrazol-4-yl)-6-chloropyrazine-2-carboxamide] were, in that order, 137 nM, 215 nM and 587 nM.
On to `Cn1ncc(NC(=O)c2nc(-c3ccccc3F)ccc2N)c1N1CC[C@@H](N)C1` [Example 124, (R)-3-amino-N-(5-(3-aminopyrrolidin-1-yl)-1-methyl-1H-pyrazol-4-yl)-6-(2-fluorophenyl)picolinamide], for which the figures for the Ki on PIM3 and on PIM2 were 3.79 nM and 28.5 nM, respectively.
For `Cn1ncc(NC(=O)c2nc(-c3ccccc3F)ccc2N)c1N1CCC[C@H](N)CC1` [Example 142, (S)-3-amino-N-(5-(4-aminoazepan-1-yl)-1-methyl-1H-pyrazol-4-yl)-6-(2-fluorophenyl)picolinamide], the Ki at PIM1 worked out at 0.368 nM; on PIM3 it was 0.245 nM; on PIM2, 3.13 nM.
Consider `Cn1ncc(NC(=O)c2cncc(-c3ccccc3F)n2)c1N1CCC[C@H](N)CC1` [Example 220, (S)—N-(5-(4-aminoazepan-1-yl)-1-methyl-1H-pyrazol-4-yl)-6-(2-fluorophenyl)pyrazine-2-carboxamide], for which the Ki at PIM1 came to 22 nM; on PIM3, 34.2 nM; at PIM2 it was 581 nM.
For `CN1CCC(c2c(NC(=O)c3nc(-c4c(F)cccc4F)sc3N)cnn2C)CC1` [Example 231, 5-amino-2-(2,6-difluorophenyl)-N-(1-methyl-5-(1-methylpiperidin-4-yl)-1H-pyrazol-4-yl)thiazole-4-carboxamide], in that order: 7.65 nM, 5.26 nM and 201 nM.
For `Cn1ncc(NC(=O)c2ccc(F)c(-c3c(F)cccc3F)n2)c1N1CCC[C@@H](N)CC1` [Example 238, (R)—N-(5-(4-aminoazepan-1-yl)-1-methyl-1H-pyrazol-4-yl)-6-(2,6-difluorophenyl)-5-fluoropicolinamide], in that order: 0.897 nM, 2.48 nM and 17.3 nM.
The like results for `Cn1ncc(NC(=O)c2nc(-c3c(F)cccc3F)sc2N)c1C1CCNCC1` [Example 263, 5-amino-2-(2,6-difluorophenyl)-N-(1-methyl-5-(piperidin-4-yl)-1H-pyrazol-4-yl)thiazole-4-carboxamide] were, in that order, 10.4 nM, 6.12 nM and 185 nM.
As to `CN[C@H]1CCCN(c2c(NC(=O)c3nc(-c4c(F)cccc4F)sc3N)cnn2C)CC1` [Example 328, (S)-5-amino-2-(2,6-difluorophenyl)-N-(1-methyl-5-(4-(methylamino)azepan-1-yl)-1H-pyrazol-4-yl)thiazole-4-carboxamide], the figures for the Ki on PIM1, at PIM3 and on PIM2 were 0.096 nM, 0.176 nM and 4.37 nM, respectively.
For `Nc1sc(-c2c(F)cccc2F)nc1C(=O)Nc1cnn(CCF)c1` [Example 353, 5-amino-2-(2,6-difluorophenyl)-N-(1-(2-fluoroethyl)-1H-pyrazol-4-yl)thiazole-4-carboxamide], in that order: 11.9 nM, 19 nM and 38 nM.
For `CCn1ncc(NC(=O)c2nc(-c3ccccc3F)sc2N)c1N1CCC[C@@H](N)CC1` [Example 364, (R)-5-Amino-N-(5-(4-aminoazepan-1-yl)-1-ethyl-1H-pyrazol-4-yl)-2-(2-fluorophenyl)thiazole-4-carboxamide], in that order: 20 nM, 24 nM and 124 nM.
The like results for `Cn1ncc(NC(=O)c2nc(-c3c(F)cccc3F)sc2N)c1C1CCC(N)CC1` (centres unmarked) [Example 369, 5-amino-N-(5-(4-aminocyclohexyl)-1-methyl-1H-pyrazol-4-yl)-2-(2,6-difluorophenyl)thiazole-4-carboxamide] were, in that order, 0.462 nM, 0.735 nM and 12.5 nM.
